US20040082558A1, “Administration of estradiol metabolites for inhibition of drug-induced nephrotoxicity” (priority 2002, published 2004)
Marks after values point to notes of the source that are not given here.

Legend:
Format in all cases: in vivo, rat
PAN-nephropathic rats [1] = experiment: Metabolic cage measurements (24-hour urine, intake, plasma) in PAN-nephropathic rats
Experimental: A total of thirty-five, male Sprague Dawley rats (approximately 290 grams) were used. Rats were housed in the University of Pittsburgh Medical Center animal care facility (temperature, 22° C.; light cycle, 12 hours; relative humidity, 55%). Animals were fed Pro Lab RMH 3000 rodent diet (PMI Nutrition Inc., St Louis, Mo.) and were given water ad libitum. Institutional guidelines for animal welfare were followed, and the University of Pittsburgh Institutional Animal Care and Use Committee approved experimental protocols.
Before initiating treatment, and 3, and 6 and 11 weeks into the treatments, animals were placed in metabolic cages and allowed to acclimatize for two days before conducting the 24-hour measurements of urine volume, food and water intake and urinary sodium, potassium, creatinine, and protein excretion. Tail vein blood samples were also taken for measurement of plasma sodium, potassium, albumin and creatinine. Plasma and urine samples were analyzed for sodium and potassium concentrations using a flame photometer (Model IL-943; Instrumentations Laboratory Inc., Lexington, Ma.) and for creatinine concentrations using a creatinine analyzer (Creatinine Analyzer 2, Beckman Instrument, Inc., Fullerton Calif., USA). Total urine proteins were measured by a spectrophotometric assay using bicinchoninic acid reagent (Pierce; Rockford, Ill.) and a modification of Lowry method. Lowry, O. H., et al., J. Biol. Chem. 193: 265 (1951), the disclosure of which is incorporated herein by reference.
(§1) After baseline metabolic parameters were measured, animals were randomly assigned to receive subcutaneous saline (3 ml/kg; Control group, n=9) or puromycin aminonucleoside (PAN) (75 mg/kg; drug-induced nephrotoxic animals, n=26). PAN is a drug widely used to produce drug-induced nephrotoxicity in laboratory animals. Grond, J., et al., Contributions to Nephrology 60:83 (1988), the disclosure of which is incorporated herein by reference. Injections of PAN (20 mg/kg) were repeated after 2, 4, 8 and 10 weeks of treatment. Three hours after the initial injections, control animals were implanted with osmotic minipumps (model 2ML4, Alza, Palo Alto, Calif.) containing vehicle (polyethylene glycol 400, 2.5 μl/hour), whereas PAN-treated animals were implanted with osmotic minipumps containing either vehicle (PAN group, n=13) or 2-hydroxyestradiol (10 μg/kg/hour, PAN+2OHE group, n=13). Assignment to the PAN and PAN+2OHE groups was random. Six animals in the PAN group and 2 animals in the PAN+2OHE group died during the treatment, and these animals were not used in the final data analysis.

PAN-treated rats = experiment: Mortality during 12-week treatment of PAN-treated rats
Experimental: as §1

ED1 positive cells = experiment: Immunohistochemical staining for ED1 positive cells (macrophage infiltration) in glomeruli and interstitium; settings: 12 weeks of treatment, kidney sections
Experimental: (§2) Animals were killed by an overdose of anesthetic and kidneys were removed and weighed. One kidney was fixed in 10% formalin buffer and the second kidney was quick-frozen in liquid nitrogen and stored at −70° C. Kidney tissue samples were sectioned and processed into paraffin blocks for light microscopy. For labeling of collagen IV, renal cortical segments (5 μm) were incubated overnight at 4° C. with rabbit anti-mouse collagen IV antibody (dilution 1/500 ) obtained from Chemicon International Inc. (Temecula, Calif.). A primary monoclonal mouse antibody ( 1/200 dilution; Dako Corporation, Carpenteria, Calif.) was used to label proliferating cell nuclear antigen (PCNA). […] Nonspecific staining was assessed by replacing the primary antibody with phosphate buffered saline. […] Immunochemical staining for collagen IV and PCNA quantitatively was done with a SAMBA 4000 image analyzer (Image Products International, Chantilly, Va.) using specialized computer software (Immuno-Analysis, version 4.1, Microsoft, Richmond, Wash.), a color video camera and a Compaq computer. […] Ten high power fields (×400) were assessed for staining density or positively marked cells for ED-1. […] Staining intensity of positive areas was also assessed (mean optical density) and a mean quick score was then calculated (mean optical density×labeling index).

PAN-nephropathic rats [2] = experiment: Acute measurements of renal hemodynamics and excretory function at 12 weeks; settings: 12 weeks of treatment
Experimental: as §1
At 12 weeks into treatment, animals were anesthetized with pentobarbital (45 mg/kg i.p.) and instrumented for measurements of renal hemodynamics and excretory function. Two polyethylene (PE)-50 catheters were inserted into left jugular vein for delivery of supplemental anesthetics and saline infusion (50 μl/min), respectively. Another PE-50 catheter was inserted into left carotid artery and connected to a blood-pressure analyzer (Micro-Med., Inc., Louisville, Ky.) for continuous measurement of blood pressure and heart rate. A PE-10 catheter was inserted into the left ureter to facilitate collection of urine, and a flow probe (Model 1RB; Transonic Systems, Inc., Ithaca, N.Y.) was placed on the left renal artery for determination of renal blood flow, which was used to calculate renal vascular resistance. Next, an infusion of ^14C-inulin (0.035 μCi/20 μl saline/min) was initiated and after 60 minutes, two 30-minute clearance periods were conducted. A mid-point blood sample (300 μl) was collected and plasma and urine ^14C-inulin radioactivity was measured. Renal clearance of ^14C-inulin was calculated as an estimate of glomerular filtration rate.

[3] = system: proliferating cell nuclear antigen (PCNA); experiment: Glomerular immunohistochemical staining for PCNA, quantitative image analysis; settings: 12 weeks of treatment, kidney sections
Experimental: as §2

collagen IV = experiment: Glomerular immunohistochemical staining for collagen IV, quantitative image analysis; settings: 12 weeks of treatment, kidney sections
Experimental: as §2

PAN-nephropathic rats [4] = experiment: Plasma testosterone radioimmunoassay; settings: 12 weeks of treatment, male rats
Experimental: An aliquot of mid-point blood sample drawn during the first clearance period was used for testosterone measurements. Plasma testosterone levels were determined by radioimmunoassay using a commercial kit provided by ICN Biomedicals, Inc. (Costa Mesa, Calif.) according to the protocol of the manufacturer.

C[C@]12CC[C@@H]3c4cc(O)c(O)cc4CC[C@H]3[C@@H]1CC[C@@H]2O [2-OHE, 2-hydroxyestradiol]
Body Weight (PAN-nephropathic rats [1]; 0 wks of treatment (baseline)): 291 ± 5 g
Creatinine Excretion (PAN-nephropathic rats [1]; 0 wks of treatment (baseline)): 13.0 ± 1.0 mg/day
FE - K+ (fractional excretion of potassium) (PAN-nephropathic rats [1]; 0 wks of treatment (baseline)): 11.6 ± 1.4%
FE - Na+ (fractional excretion of sodium) (PAN-nephropathic rats [1]; 0 wks of treatment (baseline)): 0.18 ± 0.03%
Fluid Intake (PAN-nephropathic rats [1]; 0 wks of treatment (baseline)): 5.37 ± 0.25 mL/h/kg
Food Intake (PAN-nephropathic rats [1]; 0 wks of treatment (baseline)): 76 ± 2 g/kg/day
Plasma Cholesterol (PAN-nephropathic rats [1]; 0 wks of treatment (baseline)): 51.2 ± 2.2 mg/dL
Potassium Excretion (PAN-nephropathic rats [1]; 0 wks of treatment (baseline)): 7.54 ± 0.52 mEq/day/kg
Sodium Excretion (PAN-nephropathic rats [1]; 0 wks of treatment (baseline)): 3.35 ± 0.18 mEq/day/kg
Urine Volume (PAN-nephropathic rats [1]; 0 wks of treatment (baseline)): 1.68 ± 0.167 mL/h/kg
Creatinine Excretion (PAN-nephropathic rats [1]; 3 wks of treatment): 10.9 ± 0.7 mg/day
FE - K+ (fractional excretion of potassium) (PAN-nephropathic rats [1]; 3 wks of treatment): 32.1 ± 4.4 %
FE - Na+ (fractional excretion of sodium) (PAN-nephropathic rats [1]; 3 wks of treatment): 0.50 ± 0.10%
Fluid Intake (PAN-nephropathic rats [1]; 3 wks of treatment): 7.04 ± 0.667 mL/h/kg
Food Intake (PAN-nephropathic rats [1]; 3 wks of treatment): 75 ± 4 g/kg/day
Plasma Cholesterol (PAN-nephropathic rats [1]; 3 wks of treatment): 315 ± 39.3 mg/dL
Potassium Excretion (PAN-nephropathic rats [1]; 3 wks of treatment): 12.3 ± 0.61 mEq/day/kg
Sodium Excretion (PAN-nephropathic rats [1]; 3 wks of treatment): 5.76 ± 0.57 mEq/day/kg
Urine Volume (PAN-nephropathic rats [1]; 3 wks of treatment): 3.62 ± 0.292 mL/h/kg
Creatinine Excretion (PAN-nephropathic rats [1]; 6 wks of treatment): 9.8 ± 0.7 mg/day
FE - K+ (fractional excretion of potassium) (PAN-nephropathic rats [1]; 6 wks of treatment): 17.3 ± 2.5 %
FE - Na+ (fractional excretion of sodium) (PAN-nephropathic rats [1]; 6 wks of treatment): 0.34 ± 0.04%
Fluid Intake (PAN-nephropathic rats [1]; 6 wks of treatment): 5.92 ± 0.5 mL/h/kg
Food Intake (PAN-nephropathic rats [1]; 6 wks of treatment): 60 ± 5 g/kg/day
Plasma Cholesterol (PAN-nephropathic rats [1]; 6 wks of treatment): 248.3 ± 19.3 mg/dL
Potassium Excretion (PAN-nephropathic rats [1]; 6 wks of treatment): 9.17 ± 0.63 mEq/day/kg
Sodium Excretion (PAN-nephropathic rats [1]; 6 wks of treatment): 4.21 ± 0.43 mEq/day/kg
Urine Volume (PAN-nephropathic rats [1]; 6 wks of treatment): 2.99 ± 0.292 mL/h/kg
Creatinine Excretion (PAN-nephropathic rats [1]; 11 wks of treatment): 12.8 ± 2.8 mg/day
FE - K+ (fractional excretion of potassium) (PAN-nephropathic rats [1]; 11 wks of treatment): 29.7 ± 1.7 %
FE - Na+ (fractional excretion of sodium) (PAN-nephropathic rats [1]; 11 wks of treatment): 0.37 ± 0.04%
Fluid Intake (PAN-nephropathic rats [1]; 11 wks of treatment): 6.12 ± 0.583 mL/h/kg
Food Intake (PAN-nephropathic rats [1]; 11 wks of treatment): 58 ± 6 g/kg/day
Plasma Cholesterol (PAN-nephropathic rats [1]; 11 wks of treatment): 340.6 ± 27.3 mg/dL
Potassium Excretion (PAN-nephropathic rats [1]; 11 wks of treatment): 8.36 ± 1.25 mEq/day/kg
Sodium Excretion (PAN-nephropathic rats [1]; 11 wks of treatment): 3.12 ± 0.66 mEq/day/kg
Urine Volume (PAN-nephropathic rats [1]; 11 wks of treatment): 3.44 ± 0.312 mL/h/kg
Creatinine clearance (in words, FIGS. 1B and 1C) (PAN-nephropathic rats [1]; chronic treatment): attenuated the decline in creatinine clearance caused by PAN
Plasma creatinine levels (in words, FIG. 1A) (PAN-nephropathic rats [1]; chronic treatment): attenuated PAN-induced increases in plasma creatinine levels
UPE corrected for creatinine clearance (UPE/CrCl; in words, FIG. 2B) (PAN-nephropathic rats [1]; chronic treatment): this effect became even more significant
Urinary protein excretion (UPE; in words, FIG. 2A) (PAN-nephropathic rats [1]; chronic treatment): reduced PAN-induced increases in urinary protein excretion
Reduction of PAN-induced mortality (PAN-treated rats; 2-hydroxyestradiol 10 μg/kg/hour by osmotic minipump): 66%
Animals died during the treatment (PAN-treated rats; n=13 per group): 2 animals
Number of ED1 positive cells in glomeruli and interstitium (in words, FIG. 4) (ED1 positive cells): significantly (P<0.001) reduced the number of inflammatory cells in glomeruli and in the interstitium
Blood pressure (in words) (PAN-nephropathic rats [2]): abolished PAN-induced changes in blood pressure
GFR, inulin clearance (in words) (PAN-nephropathic rats [2]): significantly attenuated PAN-induced changes in GFR
Hematocrit (PAN-nephropathic rats [2]): 30 ± 3%
Left Kidney (PAN-nephropathic rats [2]): 2.34 ± 0.09 g
Glomerular Filtration Rate (PAN-nephropathic rats [2]; 14C-inulin clearance): 0.54 ± 0.06^b ml/min/g kidney
Body Weight (PAN-nephropathic rats [2]; acute experiment): 353 ± 15
Mean Blood Pressure (PAN-nephropathic rats [2]; anesthetized): 138.2 ± 4^b mm Hg
Renal Blood Flow (PAN-nephropathic rats [2]; anesthetized): 2.80 ± 0.18 ml/min/g kidney
Renal Plasma Flow (PAN-nephropathic rats [2]; anesthetized): 1.96 ± 0.12 ml/min/g kidney
Renal Vascular Resistance (PAN-nephropathic rats [2]; anesthetized): 58.5 ± 4.5 mm Hg/ml/min/g kid
Urine Volume (PAN-nephropathic rats [2]; anesthetized): 3.33 ± 0.26 μl/min/g kidney
Labeling index of glomerular immunoreactive PCNA (in words, FIG. 3) [3]: significantly reduced the labeling index of glomerular immunoreactive PCNA
Glomerular collagen IV, labeling index (in words, FIGS. 5 and 6) (collagen IV): significantly reduced the labeling index of glomerular immunoreactive collagen IV
Plasma testosterone levels (PAN-nephropathic rats [4]): 0.91 ± 0.22 ng/mL
